Earlier results as cited in patent EP0860164A1, “Cosmetic and dermatological composition for sun protection containing triazine derivates and butylenglycol diesters” (Beiersdorf Aktiengesellschaft, priority 1997, dated 1998).

Conditions: maximum amount of the filter that known solvents (Bekannte Lösungsmittel) can dissolve

For CCCCC(CC)COC(=O)c1ccc(Nc2nc(Nc3ccc(C(=O)OCC(CC)CCCC)cc3)nc(Nc3ccc(C(=O)OCC(CC)CCCC)cc3)n2)cc1 (stereo not shown) [UVINUL® T 150, 4,4',4''-(1,3,5-Triazin-2,4,6-triyltriimino)-tris-benzoesäure-tris(2-ethylhexylester)], the “Löslichkeit in Lipiden” value is listed as no more than 15 Gew.-%.
